Data as given in US6150414A, “Compositions and methods for treating viral infections” (priority 1992, dated 2000).
“And” between values parts separate entries of the source, which are not always exact repeats. Equal values may be shown once. Read-outs that look alike come from different tables or passages of the source.

Assays:
[1] = molecular target: T1, Radiation Leukemia Virus reverse transcriptase (Radiation murine leukemia virus, UniProt P11227); experiment: Radiation Leukemia Virus reverse transcriptase assay, supernatants from infected AQR cells (Examples 4 and 9); assay type: biochemical; settings: for inhibition at 50 ng / inhibition at 0.0001 mg / inhibition at 0.0005 mg / inhibition at 0.001 mg / inhibition at 0.002 mg / inhibition at 0.005 mg / inhibition at 0.01 mg: 0.5 h; for inhibition at 0.01 mg: read-out: Average % Inhibition; for CPM: replicate
T1 construct: the reverse transcriptase of Radiation Leukemia Virus; endogenous in cells
Experimental: (§1) Supernatants (10 ml/tube) from B10.T(6R) cells (Meruelo et al. J. Exp. Med. 147: 470-487, 1978) chronically infected with Radiation Leukemia Virus (RadLV) were obtained by centrifugation of cells in culture at 4° C., 3500 rpm for 15 minutes. The top 2/3 of the supernatant were removed and aliquots were incubated for 30 minutes on ice with the indicated amounts of hypericin or protohypericin. […] Thereafter, supernatants were centrifuged at 100,000×g using a TI70 rotor (Beckman Instruments) for 1 hour at 4° C. The pellet was […] and analyzed for reverse transcriptase activity as follows.
(§2) The reverse transcriptase assay was performed in a volume of 100 microliters containing the following components:
The antiviral activity of HHA was tested using AQR (Bach and Meruelo, J. Exp. Med. 160:270-285, 1984) cells chronically infected with Radiation Leukemia Virus in the reverse transcriptase assay as described in Example 3 above.
The assays were conducted using the same procedure as in Example 3 above, using supernatants from infected AQR cells.

[2] = system: Friend Virus; experiment: Friend Virus-induced splenomegaly, WIS compounds (Example 8); assay type: in vivo, mice; parameters: Actual Spleen Weight / Average Spleen Weight: unit not given here; settings: for Average % Inhibition / Average Spleen Weight / Actual Spleen Weight: Table VII; for Actual Spleen Weight: single animal
Experimental: The effects of compositions according to the present invention on the increase in spleen size (splenomegaly) of BALB/c mice (Jackson Labs, Bar Harbor, ME) was examined. In these experiments, the virus (10^6 focus forming units--FFU) was inoculated intravenously and 100 micrograms of the compounds indicated in Table II were administered to the mice intraperitoneally 24 hours later. Each compound was administered once to two mice. The animals were sacrificed ten days later and their spleens weighed.
As used in Table II (and subsequent Tables of this Example l(a) and (b), "average percent inhibition" is calculated as follows: [formula] wherein "ASWNC" designates "average spleen weight of negative control"; "ASWE" designates "average spleen weight of experimental (treated) subject"; and "ASWPC" designates "average spleen weight of positive control". Average spleen weight is the numerical average of spleen weights of each experimental group (in Table II each such group includes two members).
The AAB compounds whose synthesis is described above were assayed for antiviral activity. WIS-2, -3, -4, -5 and -6 were tested to determine their biological effects on Friend Virus-induced splenomegaly using the procedure and technique set forth in Example 1 above. The assay results (three mice per group were tested each at different concentrationss of the active composition except for the PBS-negative control wherein two animals per group were used) are reported in Table VII below.

[3] = Stability to light and pH; assay type: physicochemical; settings: irradiation / exposure to light
[4] = molecular target: T1, Radiation Leukemia Virus reverse transcriptase; experiment: Reverse transcriptase assay of Radiation Leukemia Virus from B10.T(6R) cell supernatants (Example 3); assay type: biochemical; settings: for Average CPM / CPM / Average percent inhibition: Table V; for CPM: replicate
Experimental: as §1, §2
The reverse transcriptase assay provides a measure of the antiviral activity of the compounds tested by reference to the observed decrease in activity of this enzyme.
In Table V, "CPM" is "counts per minute", "Average" is the numerical average of CPM values within each group of animals.

[5] = system: retroviruses (virions); experiment: Direct inactivation of retroviruses (virions) in vitro (Example 10); assay type: biochemical, Radiation Leukemia Virus; settings: Table IX
Experimental: as §1, §2
(§3) (1) Direct inactivation of retroviruses in vitro, performed as in Example 3 above;
(§4) The results presented above in Table IX are presented as EC50 concentrations. These are the effective concentrations which inhibit 50% of the viruses in micromolar concentrations.

[6] = system: Friend Leukemia Virus; experiment: In vivo inhibition of Friend Leukemia Virus splenomegaly, intravenous 1-2 hours post infection (Example 10); parameters: species or system mice; settings: Mus musculus, read-out: EC50 for FV-induced splenomegaly
Experimental: (§5) (3) In vivo inhibition of Friend Leukemia Virus Splenomegaly performed as described in Example 1 above except that the compounds were administered intravenously 1-2 hours post infection.
as §4

[7] = system: virus budding in virus-producing cells; experiment: In vitro inhibition of virus budding: production of defective budded virions (Example 10); assay type: cell-based; settings: in vitro; Table IX; read-out: EC50 for production of defective budded virions
Source text: as §4

[8] = system: retroviruses; experiment: Comparison over two in vitro and one in vivo biological assays (Example 10); settings: Example 10
Experimental: In order to investigate the structural features of hypericin which are essential for antiretroviral activity, numerous analogs and precursors of hypericin were examined for activity in two in vitro and one in vivo biological assay.
as §3, §5

## O=c1c2ccccc2c2c3c1c(O)cc(O)c3c1c(O)cc(O)c3c(=O)c4ccccc4c2c31 [WIS-2, Tetrahydroxy-dibenzoperylene-dione]
[1]; 0.05 micrograms, Table VIII
  inhibition at 50 ng: 41.6%
[1]; 0.1 micrograms, Table VIII
  inhibition at 0.0001 mg: 70.8%
[1]; 0.5 micrograms, Table VIII
  inhibition at 0.0005 mg: 98.1%
[1]; 1 microgram, Table VIII
  inhibition at 0.001 mg: 98.7%
[1]; 2 micrograms, Table VIII
  inhibition at 0.002 mg: 99.5%
[1]; 5 micrograms, Table VIII
  inhibition at 0.005 mg: 99.5%
[1]; 10 micrograms, Table VIII
  inhibition at 0.01 mg: 99.5%
[2]; 1 microgram
  Average % Inhibition: 53.9%
  Average Spleen Weight: 0.7015
  Actual Spleen Weight: 0.6615 and 0.7519 and 0.6912
[2]; 10 micrograms
  Average % Inhibition: 62.7%
  Average Spleen Weight: 0.4701
  Actual Spleen Weight: 0.4263 and 0.4868 and 0.4972
[2]; 50 micrograms
  Average % Inhibition: 64.0%
  Average Spleen Weight: 0.4603
  Actual Spleen Weight: 0.4818 and 0.4925 and 0.4066
[2]; 150 micrograms
  Average % Inhibition: 66.3%
  Average Spleen Weight: 0.4416
  Actual Spleen Weight: 0.4075 and 0.4656 and 0.4517
[3]
  stability to light: did not change upon irradiation

## Cc1cc(O)c2c(=O)c3c(O)cc(O)c4c5c(O)cc(O)c6c(=O)c7c(O)cc(C)cc7c(c65)c(c2c1)c34 [protohypericin, Protohypericin]
[4]; 0.05 micrograms
  Average CPM: 309,103 CPM
  CPM: 310,952 CPM and 307,254 CPM
[4]; 0.1 micrograms
  Average CPM: 261,083 CPM
  CPM: 216,824 CPM and 305,342 CPM
[4]; 0.5 micrograms
  Average CPM: 257,879 CPM
  CPM: 264,710 CPM and 251,048 CPM
[4]; 1 microgram
  Average CPM: 227,614 CPM
  CPM: 192,184 CPM and 263,044 CPM
[4]; 5 micrograms
  Average CPM: 12,633 CPM
  Average percent inhibition: 94.0%
  CPM: 12,358 CPM and 12,908 CPM
[4]; 10 micrograms
  Average CPM: 185,539 CPM
  Average percent inhibition: 11.3%
  CPM: 202,656 CPM and 168,422 CPM
[4]; 50 micrograms
  Average CPM: 71,641 CPM
  Average percent inhibition: 65.8%
  CPM: 75,816 CPM and 67,466 CPM
[4]; 100 micrograms
  Average CPM: 10,281 CPM
  Average percent inhibition: 95.1%
  CPM: 8,818 CPM and 11,744 CPM
[4]; Example 3
  inhibition of RadLV reverse transcriptase activity: significantly inhibited the reverse transcriptase activity of RadLV
[4]; RadLV, vs hypericin
  concentration required relative to hypericin for the same degree of RT inhibition: 10 to 100 fold
[5]
  EC50: 7.9 µM
[6]
  EC50: 98 µM
[3]
  stability to light: converts to hypericin upon exposure to light

## O=c1c2c(O)ccc3c4ccc(O)c5c(=O)c6c(O)cc(O)c7c8c(O)cc(O)c1c8c(c23)c(c54)c67 [WIS-3, desmethylhypericin]
[1]; 0.05 micrograms, Table VIII
  Average CPM: 78,424 CPM
  CPM: 89,170 CPM and 67,678 CPM
  inhibition at 50 ng: 90.4%
[1]; 0.1 micrograms, Table VIII
  Average CPM: 20,893 CPM
  CPM: 19,322 CPM and 22,464 CPM
  inhibition at 0.0001 mg: 97.4%
[1]; 0.5 micrograms, Table VIII
  Average CPM: 2,799 CPM
  CPM: 2,630 CPM and 2,968 CPM
  inhibition at 0.0005 mg: 99.7%
[1]; 1 microgram, Table VIII
  Average CPM: 24,606 CPM
  CPM: 21,896 CPM and 27,316 CPM
  inhibition at 0.001 mg: 97%
[1]; 2 micrograms, Table VIII
  Average CPM: 15,467 CPM
  CPM: 14,020 CPM and 16,914 CPM
  inhibition at 0.002 mg: 98.1%
[1]; 5 micrograms, Table VIII
  Average CPM: 76,907 CPM
  CPM: 75,776 CPM and 78,038 CPM
  inhibition at 0.005 mg: 90.6%
[1]; 10 micrograms, Table VIII
  Average CPM: 119,248 CPM
  CPM: 57,512 CPM and 61,736 CPM
[1]
  inhibition at 0.01 mg: 85.4%
[1]; Example 9
  inhibition of RadLV reverse transcriptase activity: highest level of antiviral activity of the compounds that were tested in this assay
[2]; 1 microgram
  Average % Inhibition: 24.3%
  Average Spleen Weight: 0.7737
  Actual Spleen Weight: 0.7527 and 0.8048 and 0.7277
[2]; 10 micrograms
  Average % Inhibition: 24.1%
  Average Spleen Weight: 0.7759
  Actual Spleen Weight: 0.7727 and 0.8108 and 0.7413
[2]; 50 micrograms
  Average % Inhibition: 34.7%
  Average Spleen Weight: 0.6921
  Actual Spleen Weight: 0.6998 and 0.6723 and 0.7041
[2]; 150 micrograms
  Average % Inhibition: 79.7%
  Average Spleen Weight: 0.3290
  Actual Spleen Weight: 0.2967 and 0.3518 and 0.3384
[2]; Example 8
  antiviral activity in splenomegaly assay: most active compounds of the group in the splenomegaly assay
[5]
  EC50: 0.07 µM
[7]
  EC50: 2 µM
[6]
  EC50: 174 µM
[8]
  activity across assays: high degree of activity in a more than one assay
